Laboratory results: publication PMC3639963, “A New Class of Small Molecule Inhibitor of BMP Signaling” (PLoS ONE, 2013)

Columns and labels:
Assay in all cases: Nanosyn kinase profiling
Format in all cases: biochemical
Conditions in all cases: read-out: Percentage inhibition; for inhibition at 0.1 µM: 0.1 µM inhibitor; for inhibition at 1 µM: 1 µM inhibitor
AKT1 = target: T1, AKT1 (Homo sapiens, UniProt P31749)
T1 construct: purchased Nanosyn (enzymatic panel); SGC in-house recombinant human kinases (DSF panel); Invitrogen (ALK1-6)
How it was run: (§1)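 Percent inhibition of each kinase was measured with the inhibitor at 0.1 µM and at 1 µM, as part of a 200-kinase human selectivity panel.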

AKT3 = target: T2, AKT3 (Homo sapiens, UniProt Q9Y243)
T2 construct: purchased Nanosyn (enzymatic panel); SGC in-house recombinant human kinases (DSF panel); Invitrogen (ALK1-6)
How it was run: as §1

CHEK1 = target: T3, CHEK1 (Homo sapiens, UniProt O14757)
T3 construct: purchased Nanosyn (enzymatic panel); SGC in-house recombinant human kinases (DSF panel); Invitrogen (ALK1-6)
T3 sequence (O14757 1-476): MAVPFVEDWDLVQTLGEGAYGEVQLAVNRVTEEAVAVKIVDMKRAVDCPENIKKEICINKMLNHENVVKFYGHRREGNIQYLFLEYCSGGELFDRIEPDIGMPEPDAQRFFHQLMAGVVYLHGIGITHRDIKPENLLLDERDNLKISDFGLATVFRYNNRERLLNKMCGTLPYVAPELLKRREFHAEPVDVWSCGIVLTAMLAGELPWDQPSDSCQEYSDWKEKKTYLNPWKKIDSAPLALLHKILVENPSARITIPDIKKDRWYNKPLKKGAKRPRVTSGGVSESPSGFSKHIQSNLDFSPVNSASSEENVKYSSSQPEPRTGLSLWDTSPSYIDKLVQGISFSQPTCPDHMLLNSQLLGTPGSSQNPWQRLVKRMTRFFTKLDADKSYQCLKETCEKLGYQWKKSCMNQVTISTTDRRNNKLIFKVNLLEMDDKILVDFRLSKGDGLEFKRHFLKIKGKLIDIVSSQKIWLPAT
How it was run: as §1

LRRK2 = target: T4, LRRK2 (Homo sapiens, UniProt Q5S007)
T4 construct: purchased Nanosyn (enzymatic panel); SGC in-house recombinant human kinases (DSF panel); Invitrogen (ALK1-6)
How it was run: as §1

MSSK1 = target: T5, MSSK1 (Homo sapiens, UniProt Q9UPE1)
T5 construct: purchased Nanosyn (enzymatic panel); SGC in-house recombinant human kinases (DSF panel); Invitrogen (ALK1-6)
How it was run: as §1

MUSK = target: T6, MUSK (Homo sapiens, UniProt O15146)
T6 construct: purchased Nanosyn (enzymatic panel); SGC in-house recombinant human kinases (DSF panel); Invitrogen (ALK1-6)
T6 sequence (O15146 24-869): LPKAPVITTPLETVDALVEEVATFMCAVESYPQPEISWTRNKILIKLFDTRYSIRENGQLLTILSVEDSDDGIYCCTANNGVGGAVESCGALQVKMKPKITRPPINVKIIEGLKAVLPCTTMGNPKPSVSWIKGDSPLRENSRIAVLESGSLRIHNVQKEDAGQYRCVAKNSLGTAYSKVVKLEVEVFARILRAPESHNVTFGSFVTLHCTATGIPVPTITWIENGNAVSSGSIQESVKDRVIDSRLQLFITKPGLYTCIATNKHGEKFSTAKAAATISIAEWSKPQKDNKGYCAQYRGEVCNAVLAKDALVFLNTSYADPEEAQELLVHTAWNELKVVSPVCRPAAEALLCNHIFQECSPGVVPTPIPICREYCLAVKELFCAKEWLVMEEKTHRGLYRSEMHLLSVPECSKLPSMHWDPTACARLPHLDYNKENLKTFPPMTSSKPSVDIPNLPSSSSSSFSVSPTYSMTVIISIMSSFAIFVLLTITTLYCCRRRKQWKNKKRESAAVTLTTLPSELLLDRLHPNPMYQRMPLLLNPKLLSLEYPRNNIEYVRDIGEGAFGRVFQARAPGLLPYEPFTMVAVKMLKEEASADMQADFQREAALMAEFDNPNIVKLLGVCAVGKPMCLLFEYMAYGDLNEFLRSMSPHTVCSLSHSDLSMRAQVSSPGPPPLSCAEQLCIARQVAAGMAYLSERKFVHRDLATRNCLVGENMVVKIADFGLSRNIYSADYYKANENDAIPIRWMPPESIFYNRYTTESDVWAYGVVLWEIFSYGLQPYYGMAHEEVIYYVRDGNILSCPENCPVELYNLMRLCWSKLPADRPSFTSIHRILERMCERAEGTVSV
How it was run: as §1

NEK2 = target: T7, NEK2 (Homo sapiens, UniProt P51955)
T7 construct: purchased Nanosyn (enzymatic panel); SGC in-house recombinant human kinases (DSF panel); Invitrogen (ALK1-6)
T7 sequence (P51955 1-445): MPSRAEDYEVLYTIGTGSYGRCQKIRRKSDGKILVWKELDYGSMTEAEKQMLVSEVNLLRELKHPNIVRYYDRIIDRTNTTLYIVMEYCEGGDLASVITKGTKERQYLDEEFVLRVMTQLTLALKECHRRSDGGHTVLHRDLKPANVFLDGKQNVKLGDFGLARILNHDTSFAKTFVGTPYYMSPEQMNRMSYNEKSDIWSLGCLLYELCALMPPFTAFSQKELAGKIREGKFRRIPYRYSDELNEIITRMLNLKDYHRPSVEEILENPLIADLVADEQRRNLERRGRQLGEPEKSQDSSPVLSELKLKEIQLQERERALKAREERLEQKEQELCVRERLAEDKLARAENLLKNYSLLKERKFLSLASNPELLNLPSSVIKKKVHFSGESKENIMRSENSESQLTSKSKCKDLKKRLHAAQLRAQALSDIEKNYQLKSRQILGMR
How it was run: as §1

PHKγ1 = target: T8, PHKγ1 (Homo sapiens, UniProt Q16816)
T8 construct: purchased Nanosyn (enzymatic panel); SGC in-house recombinant human kinases (DSF panel); Invitrogen (ALK1-6)
How it was run: as §1

PIM2 = target: T9, PIM2 (Homo sapiens, UniProt Q9P1W9)
T9 construct: purchased Nanosyn (enzymatic panel); SGC in-house recombinant human kinases (DSF panel); Invitrogen (ALK1-6)
How it was run: as §1

PKCγ = target: T10, PKCγ (Homo sapiens, UniProt P05129)
T10 construct: purchased Nanosyn (enzymatic panel); SGC in-house recombinant human kinases (DSF panel); Invitrogen (ALK1-6)
How it was run: as §1

SRMS = target: T11, SRMS (Homo sapiens, UniProt Q9H3Y6)
T11 construct: purchased Nanosyn (enzymatic panel); SGC in-house recombinant human kinases (DSF panel); Invitrogen (ALK1-6)
How it was run: as §1

T2 sequence (Q9Y243 whole entry): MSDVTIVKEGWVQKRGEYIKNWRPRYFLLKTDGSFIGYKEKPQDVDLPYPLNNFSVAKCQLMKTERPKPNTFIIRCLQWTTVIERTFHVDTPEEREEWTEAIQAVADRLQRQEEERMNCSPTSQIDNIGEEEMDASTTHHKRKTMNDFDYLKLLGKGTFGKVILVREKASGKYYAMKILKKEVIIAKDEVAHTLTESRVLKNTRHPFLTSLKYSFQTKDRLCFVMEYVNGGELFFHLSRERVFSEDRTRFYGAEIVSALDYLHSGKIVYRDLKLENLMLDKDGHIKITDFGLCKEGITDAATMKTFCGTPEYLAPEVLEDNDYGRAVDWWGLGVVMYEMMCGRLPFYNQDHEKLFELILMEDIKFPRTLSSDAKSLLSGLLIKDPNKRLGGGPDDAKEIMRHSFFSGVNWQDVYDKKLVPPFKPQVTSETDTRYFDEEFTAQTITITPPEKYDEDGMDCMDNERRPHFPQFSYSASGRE
T11 sequence (Q9H3Y6 whole entry): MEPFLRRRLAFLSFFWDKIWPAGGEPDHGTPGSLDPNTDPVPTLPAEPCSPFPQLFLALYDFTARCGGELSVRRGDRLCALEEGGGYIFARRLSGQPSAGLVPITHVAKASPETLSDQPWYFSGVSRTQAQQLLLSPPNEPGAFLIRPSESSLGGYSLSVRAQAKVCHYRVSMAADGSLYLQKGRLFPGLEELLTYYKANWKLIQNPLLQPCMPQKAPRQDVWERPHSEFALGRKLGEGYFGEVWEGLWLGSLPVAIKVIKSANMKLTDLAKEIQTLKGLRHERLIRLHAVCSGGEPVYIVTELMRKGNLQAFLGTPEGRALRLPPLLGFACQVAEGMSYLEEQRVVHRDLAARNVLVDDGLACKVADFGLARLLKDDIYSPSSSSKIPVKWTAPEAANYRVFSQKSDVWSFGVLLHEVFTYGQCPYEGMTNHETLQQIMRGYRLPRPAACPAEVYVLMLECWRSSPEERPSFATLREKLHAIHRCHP
T1 sequence (P31749 whole entry): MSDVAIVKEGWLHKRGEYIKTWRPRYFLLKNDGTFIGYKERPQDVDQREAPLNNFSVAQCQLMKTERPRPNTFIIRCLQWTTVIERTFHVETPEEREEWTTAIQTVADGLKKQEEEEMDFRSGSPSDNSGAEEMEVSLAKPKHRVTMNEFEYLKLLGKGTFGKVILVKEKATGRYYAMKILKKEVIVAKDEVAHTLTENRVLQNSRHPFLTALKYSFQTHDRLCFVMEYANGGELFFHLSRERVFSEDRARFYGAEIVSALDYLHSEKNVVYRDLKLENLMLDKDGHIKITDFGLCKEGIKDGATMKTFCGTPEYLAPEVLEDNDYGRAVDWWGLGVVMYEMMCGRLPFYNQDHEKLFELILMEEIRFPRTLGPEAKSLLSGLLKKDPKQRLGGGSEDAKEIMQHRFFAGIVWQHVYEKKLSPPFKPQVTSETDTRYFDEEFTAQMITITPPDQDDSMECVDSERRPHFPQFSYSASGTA
T4 sequence (Q5S007 whole entry): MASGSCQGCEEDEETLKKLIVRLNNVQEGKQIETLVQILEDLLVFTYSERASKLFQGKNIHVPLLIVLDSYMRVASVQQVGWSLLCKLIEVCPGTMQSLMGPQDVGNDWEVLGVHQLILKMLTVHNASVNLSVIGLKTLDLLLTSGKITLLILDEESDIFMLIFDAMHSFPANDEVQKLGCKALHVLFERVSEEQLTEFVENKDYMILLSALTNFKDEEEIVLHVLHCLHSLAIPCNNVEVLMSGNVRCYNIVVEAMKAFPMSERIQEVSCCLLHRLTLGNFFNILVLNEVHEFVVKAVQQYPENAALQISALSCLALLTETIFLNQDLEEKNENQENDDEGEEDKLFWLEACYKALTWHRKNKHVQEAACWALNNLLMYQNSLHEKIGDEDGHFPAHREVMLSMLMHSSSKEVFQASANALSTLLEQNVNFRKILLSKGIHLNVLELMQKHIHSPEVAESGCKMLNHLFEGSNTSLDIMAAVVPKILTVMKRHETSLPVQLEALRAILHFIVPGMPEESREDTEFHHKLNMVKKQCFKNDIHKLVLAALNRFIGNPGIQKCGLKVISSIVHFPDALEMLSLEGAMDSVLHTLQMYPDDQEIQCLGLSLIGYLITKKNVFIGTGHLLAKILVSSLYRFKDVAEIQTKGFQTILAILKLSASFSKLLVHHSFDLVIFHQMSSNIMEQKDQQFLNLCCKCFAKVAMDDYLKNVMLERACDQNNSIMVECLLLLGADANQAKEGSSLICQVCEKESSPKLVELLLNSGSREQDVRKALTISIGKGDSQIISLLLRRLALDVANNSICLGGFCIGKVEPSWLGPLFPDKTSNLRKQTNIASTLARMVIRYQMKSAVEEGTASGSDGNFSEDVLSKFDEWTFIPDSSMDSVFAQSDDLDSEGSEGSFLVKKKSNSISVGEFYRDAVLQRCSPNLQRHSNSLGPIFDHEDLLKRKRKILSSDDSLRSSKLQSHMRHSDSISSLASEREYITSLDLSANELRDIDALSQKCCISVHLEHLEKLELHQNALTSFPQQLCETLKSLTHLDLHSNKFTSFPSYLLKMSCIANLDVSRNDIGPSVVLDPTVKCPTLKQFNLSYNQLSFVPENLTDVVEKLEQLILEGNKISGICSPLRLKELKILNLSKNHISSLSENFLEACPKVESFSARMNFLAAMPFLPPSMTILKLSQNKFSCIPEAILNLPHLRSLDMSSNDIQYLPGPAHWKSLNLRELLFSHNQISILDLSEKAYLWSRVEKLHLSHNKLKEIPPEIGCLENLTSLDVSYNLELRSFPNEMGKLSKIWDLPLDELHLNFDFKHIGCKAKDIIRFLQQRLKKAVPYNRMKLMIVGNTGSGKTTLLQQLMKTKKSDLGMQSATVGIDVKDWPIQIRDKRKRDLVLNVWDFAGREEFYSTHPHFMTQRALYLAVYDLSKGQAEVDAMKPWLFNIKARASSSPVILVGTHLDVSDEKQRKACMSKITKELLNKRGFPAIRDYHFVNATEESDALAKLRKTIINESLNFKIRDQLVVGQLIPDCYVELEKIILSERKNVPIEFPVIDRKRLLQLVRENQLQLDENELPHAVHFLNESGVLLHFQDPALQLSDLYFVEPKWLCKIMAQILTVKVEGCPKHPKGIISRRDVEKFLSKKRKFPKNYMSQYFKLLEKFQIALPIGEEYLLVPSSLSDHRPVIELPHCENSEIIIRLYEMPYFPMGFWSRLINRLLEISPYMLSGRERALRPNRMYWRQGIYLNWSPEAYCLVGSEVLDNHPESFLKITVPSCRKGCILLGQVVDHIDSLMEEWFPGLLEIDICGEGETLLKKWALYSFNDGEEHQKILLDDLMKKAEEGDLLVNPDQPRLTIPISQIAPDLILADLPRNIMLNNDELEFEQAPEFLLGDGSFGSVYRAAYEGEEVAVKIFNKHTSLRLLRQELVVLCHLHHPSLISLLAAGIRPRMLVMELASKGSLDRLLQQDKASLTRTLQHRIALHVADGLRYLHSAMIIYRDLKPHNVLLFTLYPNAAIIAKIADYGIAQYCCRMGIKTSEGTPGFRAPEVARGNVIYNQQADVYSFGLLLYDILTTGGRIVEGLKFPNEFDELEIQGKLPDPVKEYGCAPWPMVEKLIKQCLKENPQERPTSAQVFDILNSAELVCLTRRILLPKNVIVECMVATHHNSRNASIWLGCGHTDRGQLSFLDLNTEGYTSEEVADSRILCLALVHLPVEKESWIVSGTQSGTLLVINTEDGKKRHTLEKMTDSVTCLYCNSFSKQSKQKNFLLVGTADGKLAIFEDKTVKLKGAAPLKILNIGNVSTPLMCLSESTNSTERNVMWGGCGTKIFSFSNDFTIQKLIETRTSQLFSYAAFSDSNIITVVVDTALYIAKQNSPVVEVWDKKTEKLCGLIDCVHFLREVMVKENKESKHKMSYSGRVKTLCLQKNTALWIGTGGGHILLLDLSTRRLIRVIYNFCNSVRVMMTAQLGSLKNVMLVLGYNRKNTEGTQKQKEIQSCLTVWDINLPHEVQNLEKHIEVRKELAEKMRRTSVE
T9 sequence (Q9P1W9 whole entry): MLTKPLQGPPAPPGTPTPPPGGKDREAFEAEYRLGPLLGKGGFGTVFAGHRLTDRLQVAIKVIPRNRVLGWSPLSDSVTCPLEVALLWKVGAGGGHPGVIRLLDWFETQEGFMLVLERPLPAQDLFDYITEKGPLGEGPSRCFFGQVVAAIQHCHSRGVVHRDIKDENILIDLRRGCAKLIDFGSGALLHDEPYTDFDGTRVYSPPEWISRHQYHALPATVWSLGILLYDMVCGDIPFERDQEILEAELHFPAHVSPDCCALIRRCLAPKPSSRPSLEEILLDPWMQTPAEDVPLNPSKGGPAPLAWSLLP

Structure (SMILES) | inhibition at 0.1 µM (AKT1) [%] | inhibition at 1 µM (AKT1) [%] | inhibition at 0.1 µM (AKT3) [%] | inhibition at 1 µM (AKT3) [%] | inhibition at 0.1 µM (CHEK1) [%] | inhibition at 1 µM (CHEK1) [%] | inhibition at 0.1 µM (LRRK2) [%] | inhibition at 1 µM (LRRK2) [%] | inhibition at 0.1 µM (MSSK1) [%] | inhibition at 1 µM (MSSK1) [%] | inhibition at 0.1 µM (MUSK) [%] | inhibition at 1 µM (MUSK) [%] | inhibition at 0.1 µM (NEK2) [%] | inhibition at 1 µM (NEK2) [%] | inhibition at 0.1 µM (PHKγ1) [%] | inhibition at 1 µM (PHKγ1) [%] | inhibition at 0.1 µM (PIM2) [%] | inhibition at 1 µM (PIM2) [%] | inhibition at 0.1 µM (PKCγ) [%] | inhibition at 1 µM (PKCγ) [%] | other results
COc1cc(-c2cc(-c3cccc(O)c3)cnc2N)cc(OC)c1OC [K02288, 3-[6-amino-5-(3,4,5-trimethoxy-phenyl)-pyridin-3-yl]-phenol] | -2 | -1 | -2 | 1.2 | -1 | -2 | 7.1 | 27 | 1.8 | 0 | 1.2 | -1 | -2 | -2 | 1.8 | 4.4 | 0.9 | 2.3 | -4 | -1 | inhibition at 0.1 µM (SRMS): 0.8%; inhibition at 1 µM (SRMS): 17%
c1ccc2c(-c3cnn4cc(-c5ccc(N6CCNCC6)cc5)cnc34)ccnc2c1 [LDN-193189] | 0.8 | 1.6 | 0.2 | 1.5 | 2.9 | 0.3 | 8.7 | 27 | -3 | 1.5 | 5.8 | 26 | 2.8 | 1.2 | 5.2 | 27 | 0 | 0 | 2.1 | 4.1 | inhibition at 0.1 µM (SRMS): -1%; inhibition at 1 µM (SRMS): 8.9%
